This note sets out measurements from PubChem BioAssay AID1996.

Converted amounts (≈) assume the structure as drawn.

For the series the following is noted: buffer; pH 7.4; 200.0 µM.
Take `COc1ccc(CNC(=O)CC2(CC(=O)O)CCCCC2)cc1`: the solubility (kinetic) was above 47.9 µg/mL.

`CC(C)C(=O)NC(=S)Nc1ccc(S(=O)(=O)NC2CCCCC2)cc1` returned a solubility (kinetic) of 1 µg/mL (≈ 2.61 µM). Under `CC(=O)n1cc(Nc2ccc([N+](=O)[O-])cc2)c2ccccc21` stands 4.6 µg/mL (≈ 15.6 µM); under `NC(=S)NC1CCS(=O)(=O)C1` (stereo not drawn), above 29.1 µg/mL. In turn, `CCOC(=O)c1cn2c(C)cccc2n1` came in with a kinetic solubility above 30.6 µg/mL. Under `N#C/C(=C\c1ccc[nH]1)C(=O)Nc1ccccc1[N+](=O)[O-]` stands 0.4 µg/mL (≈ 1.42 µM); under `CC(C)CC(=O)N1CCN(Cc2ccc(C(F)(F)F)cc2)CC1`, 47.2 µg/mL (≈ 144 µM); under `Cc1cc(OC(=O)c2ccc(C)c(C)c2)c([N+](=O)[O-])c(=O)[nH]1`, above 45.3 µg/mL. Molecule `CC1(C)CC(NC(=O)c2ccc(-c3ccc([N+](=O)[O-])cc3)o2)CC(C)(C)N1` returned a kinetic solubility of 41.1 µg/mL (≈ 111 µM). Under `CC(=O)c1c(C)[nH]c(C(=O)OCC(=O)c2ccc3c(c2)NC(=O)CO3)c1C` stands 10.5 µg/mL (≈ 28.4 µM). In the case of `O=C(c1ccccc1Cl)N1CCC(n2cccc2)CC1` it was 42.2 µg/mL (≈ 146 µM). Under `COc1ccc(NC(=O)CNC(=O)C2CCCCC2)cc1` stands 39.7 µg/mL (≈ 137 µM); under `COc1ccccc1/C=C/CN1CCSCC1`, above 37.4 µg/mL; under `CCC/C(O)=C1\C(=O)CC(C)(C)CC1=NCc1ccccc1`, above 44.9 µg/mL. On to `CCCOc1ccccc1NC(=O)c1ccc([N+](=O)[O-])cc1`, for which the kinetic solubility was 4.1 µg/mL (≈ 13.7 µM). The molecule `Cc1cccc(C(=O)NCCNC(=O)c2ccco2)c1` yielded a solubility (kinetic) of 34.5 µg/mL (≈ 127 µM). `O=C(NCCOc1ccccc1)c1ccccc1Cl`: the solubility (kinetic) is above 41.4 µg/mL. Under `O=C1CC(c2ccccc2Cl)CC(O)=C1C=NCCCO` (stereo not drawn) stands 44.3 µg/mL (≈ 144 µM).

On to `O=C(/C=C/c1cccc(F)c1)N1CCN(c2ncccn2)CC1`, for which the solubility (kinetic) was 12.4 µg/mL (≈ 39.7 µM). Under `Cc1ccc2nc(SCC(=O)Nc3nonc3N)[nH]c2c1` stands 39 µg/mL (≈ 128 µM); under `COc1ccc(CNC(=O)CCSCc2ccc(C)cc2)cc1`, 16.5 µg/mL (≈ 50.1 µM). Under `CCn1ccnc1CN1CCCC(C(=O)c2cc(C)c(OC)c(C)c2)C1` (stereo not drawn) stands 47.6 µg/mL (≈ 134 µM); under `Cc1ccc(NC(=O)CN2C(=O)NC(C)(CC(C)C)C2=O)c(Br)c1` (stereo not drawn), 55.5 µg/mL (≈ 140 µM); under `CNC(=O)OCCSCCS(=O)(=O)c1ccc(Cl)cc1`, 16.6 µg/mL (≈ 49.1 µM). Under `Cc1csc(NC(=O)CSc2ccccc2F)n1` stands above 42.4 µg/mL; under `CC(C)(C)S(=O)(=O)c1ccccc1-c1noc(-c2ccccc2)c1C(N)=O`, above 57.7 µg/mL. For `Cc1c(C(=O)O)sc2nc(/C=C/c3cccc(O)c3)[nH]c(=O)c12`, the solubility (kinetic) was found to be 35.5 µg/mL (≈ 108 µM). Molecule `COC(=O)c1c(NC(=O)C2CC(C)=C(C)CC2C(=O)O)sc2c1CCCCC2` (stereo not drawn) came in with a solubility (kinetic) of 58.1 µg/mL (≈ 143 µM). In the case of `O=C(/C=C/c1ccc([N+](=O)[O-])cc1)OCC(=O)c1ccc[nH]1` it was 3 µg/mL (≈ 9.99 µM); in that of `COc1ccc(OCCn2cnc3ccccc32)cc1`, above 40.2 µg/mL; in that of `Cc1nc2cc(Cl)c(Cl)cc2n1CCCO`, 33.9 µg/mL (≈ 131 µM).

Take `Cc1noc(C)c1COC(=O)CNC(=O)c1ccc(Cl)cc1`: the solubility (kinetic) is above 48.4 µg/mL. Turning to `CN(C1CCS(=O)(=O)C1)S(=O)(=O)c1ccccc1` (stereo not drawn), the kinetic solubility is above 43.4 µg/mL. In the case of `C/C(=C\c1cccc(Cl)c1)C(=O)c1c(C)cc(C)[nH]c1=O` it was above 45.3 µg/mL; in that of `CCC1(c2ccc(F)cc2)NC(=O)N(CC(=O)Nc2ccc3c(c2)OCCO3)C1=O` (stereo not drawn), 16 µg/mL (≈ 38.7 µM); in that of `CCOC(=O)C1=C(C)Nc2ccccc2S1`, 17.9 µg/mL (≈ 76.1 µM). `Cc1ccc(C)c(N2CCN(CC3CCCCC3)CC2)c1`: the kinetic solubility was determined as 2.3 µg/mL (≈ 8.03 µM). With `COC(=O)CC1C(=O)NCCN1C(=S)Nc1ccc(F)cc1` (stereo not drawn), the solubility (kinetic) was above 48.8 µg/mL. In the case of `CCOc1ncccc1C(=O)Nc1ccc2c(c1)OCO2` it was 2.7 µg/mL (≈ 9.43 µM); in that of `CC1CN=C(NCc2ccccc2Cl)S1` (stereo not drawn), above 36.1 µg/mL; in that of `CCOC(=O)C1(CCOC)CCN(C(=O)c2sccc2C)CC1`, above 50.9 µg/mL. Under `CN1CCCN(C(=O)c2ccc(Cl)cc2)CC1` stands 32.9 µg/mL (≈ 130 µM); under `CC(C)CCN1CCC(N)=NC1=O`, 26.8 µg/mL (≈ 146 µM); under `O=C(O)CC(CN1C(=O)c2ccccc2C1=O)c1ccccc1` (stereo not drawn), above 46.4 µg/mL. In the case of `CCOC(=O)C1=C(C)NC(C)=C(C(=O)OCC)C1C(=O)OCC(=O)NC1CCCCC1` it was above 65.5 µg/mL; in that of `Cc1cc(C)nc(SCc2cn3c(C)cc(C)nc3n2)n1`, above 44.9 µg/mL; in that of `Cc1ccc(C(=O)NCc2ccc3c(c2)OCO3)c(C)c1`, 11.1 µg/mL (≈ 39.2 µM). The molecule `COc1cccc(NC(=O)COc2ccc3c(c2)CCC3)c1` came in with a kinetic solubility of 1.3 µg/mL (≈ 4.37 µM). Turning to `COc1ccc(/C=C2\C(=O)ON=C2c2ccccc2)cc1`, the kinetic solubility was 39.1 µg/mL (≈ 140 µM). Under `CN(NC1OC(=O)c2ccccc21)c1ccc(Cl)cc1[N+](=O)[O-]` (stereo not drawn) stands above 50.1 µg/mL; under `CC(=O)Nc1ccc2sccc2c1`, 27.9 µg/mL (≈ 146 µM).

Take `O=C(CN1C(=O)COc2ccccc21)Nc1ccccc1F`: the solubility (kinetic) is 21.4 µg/mL (≈ 71.3 µM).

`CC(=O)Nc1cccc(C(=O)Nc2cccc3ncccc23)c1`: the kinetic solubility was 40.3 µg/mL (≈ 132 µM). As to `Cc1cc(C(=O)NC2CCCCC2)c2cc(F)ccc2n1`, the solubility (kinetic) was found to be 19.6 µg/mL (≈ 68.4 µM). In the case of `Nc1ccc(-c2nc3ccccc3o2)cc1` it was 20.8 µg/mL (≈ 98.9 µM); in that of `O=C(CCc1c[nH]c2ccccc12)NCCOc1ccccc1`, 43.7 µg/mL (≈ 142 µM).

For `O=C(COc1ccccc1)N1CCN=C1SCc1ccccc1`, the kinetic solubility was determined as 14.3 µg/mL (≈ 43.8 µM).

With `Cn1cnc([N+](=O)[O-])c1Cl`, the kinetic solubility is above 24.2 µg/mL. In the case of `COc1ccc(OC)c(S(=O)(=O)NCC(=O)O)c1` it was 34.1 µg/mL (≈ 124 µM); in that of `CC(NC(=O)c1ccccc1[N+](=O)[O-])C1CC2CCC1C2` (stereo not drawn), 35.2 µg/mL (≈ 122 µM). Under `CN1CCN(S(=O)(=O)c2ccc(Cl)c3ccccc23)CC1` stands 45.1 µg/mL (≈ 139 µM); under `Cc1cc(=O)[nH]c(SCC(=O)Nc2ccc3c(c2)OCCO3)n1`, above 50 µg/mL; under `CCC(=O)N1C(=O)C2(Nc3ccccc3N2)c2ccccc21`, above 44 µg/mL. `Cc1ccc(NC(=S)NCc2ccc3c(c2)cc(C)n3C)c(C)c1` displayed a kinetic solubility of 0.6 µg/mL (≈ 1.78 µM). In the case of `Cl.O=[N+]([O-])c1ccccc1OCC(O)CNC1CCCC1` (stereo not drawn) it was 46.2 µg/mL. In the case of `NC(=O)CN1CCCC1c1ccc2c(c1)OCCO2` (stereo not drawn) it was above 39.3 µg/mL; in that of `CCOC(=O)c1sc(NC(=O)c2ccccc2OCC)nc1C`, below 0.4 µg/mL; in that of `CC(C)(CC(=O)O)CC(=O)Nc1ccc(Cl)c(Cl)c1`, above 45.6 µg/mL. On to `O=c1oc(-c2ccc([N+](=O)[O-])cc2)nc2ccccc12`, for which the solubility (kinetic) worked out at 0.3 µg/mL (≈ 1.12 µM). Under `O=C(/C=C/c1ccc(S(=O)(=O)N2CCOCC2)cc1)Nc1ccc(F)c(F)c1F` stands 6.9 µg/mL (≈ 16.2 µM).

As for `CCOc1ccc(C(C)=O)cc1CN1C(=O)NC(C)(C2CC2)C1=O` (stereo not drawn), the kinetic solubility amounted to 41.3 µg/mL (≈ 125 µM).

`NC(=NCc1ccco1)NC(=O)c1ccccc1`: the kinetic solubility was above 36.5 µg/mL. In the case of `O=[N+]([O-])c1ccccc1S(=O)(=O)c1ccccc1` it was above 39.5 µg/mL; in that of `Cc1cc(C)c2c(CC(=O)NC(C)C)coc2c1`, 9.5 µg/mL (≈ 38.7 µM); in that of `COc1ccccc1C(=O)CN1C(=O)NC2(CCCc3ccccc32)C1=O` (stereo not drawn), 8.4 µg/mL (≈ 23.1 µM). In the case of `C=CCn1c(O)c(C(CC)=Nc2ccc(NC(C)=O)cc2)c(=O)[nH]c1=O` it was above 53.5 µg/mL; in that of `CN(C)c1cc(-c2ccc([N+](=O)[O-])cc2)oc(=O)c1Cl`, 0.9 µg/mL (≈ 3.05 µM). For `COc1ccc(C2=NOC(C(=O)Nc3cc(C)on3)C2)cc1OC` (stereo not drawn), the kinetic solubility was above 49.7 µg/mL. On to `COc1ccc(C=O)c2[nH]c3c(Cl)ncnc3c12`, for which the kinetic solubility amounted to 3.4 µg/mL (≈ 13 µM). Under `CCN1CCN(C(=O)COc2ccc3oc4c(c3c2)CCCC4)CC1` stands above 51.4 µg/mL; under `CC(=O)c1ccc(N2CCN(c3ncccn3)CC2)cc1`, 7.7 µg/mL (≈ 27.3 µM). Under `Nc1nc(NCCOCCO)nc(NCC2CCCO2)c1[N+](=O)[O-]` (stereo not drawn) stands above 51.4 µg/mL; under `O=C(Cc1ccccc1F)NCC1(N2CCOCC2)CCCCC1`, above 50.2 µg/mL.

`CN(C(=S)NC(=O)c1ccccc1)C1CCCCC1` returned a solubility (kinetic) above 41.5 µg/mL.

As to `COc1ccc([N+](=O)[O-])c(S(=O)(=O)c2ccccc2)n1`, the solubility (kinetic) was found to be 5.6 µg/mL (≈ 19 µM).

`Cc1ccc(S(=O)(=O)NCCc2ccncc2)cc1[N+](=O)[O-]` displayed a solubility (kinetic) of 46.2 µg/mL (≈ 144 µM).

As to `Nc1nc2sc3c(c2cc1C(=O)NCC(=O)O)CCCC3`, the solubility (kinetic) is above 45.8 µg/mL. In the case of `CC(OC(=O)c1cccc([N+](=O)[O-])c1)C(=O)N1CCc2ccccc21` (stereo not drawn) it was 3.7 µg/mL (≈ 10.9 µM). In turn, `CC1=Nc2ccc(C)cc2/C1=C/c1c(N)n2oc(C)cc2nc1=O` returned a solubility (kinetic) of 0.6 µg/mL (≈ 1.87 µM). In the case of `Cc1cc(C)cc(NC(=O)C(=O)NCCCN2CCOCC2)c1` it was above 47.9 µg/mL. Under `CN1CCCN(S(=O)(=O)c2cccc(C#N)c2)CC1.Cl` stands above 47.4 µg/mL; under `Cc1ccccc1C(=O)NCC(=O)O`, above 29 µg/mL.

The molecule `O=C(CN1C(=O)C2C3C=CC(C3)C2C1=O)OCC(=O)c1ccc(Cl)cc1` (stereo not drawn) yielded a solubility (kinetic) above 56.1 µg/mL. Under `O=C(NCCCNC(=O)c1cc(Cl)ccc1Cl)c1ccco1` stands 44.3 µg/mL (≈ 130 µM); under `Cc1cc(N2CCN(C(=O)c3cccs3)CC2)c(F)cc1[N+](=O)[O-]`, 1.5 µg/mL (≈ 4.29 µM). Molecule `NC(=O)COC(=O)CC(c1ccccc1)c1ccccc1` returned a kinetic solubility above 42.5 µg/mL.

In turn, `O=C(c1ccc(Cl)cc1[N+](=O)[O-])N1CCOCC1` registered a kinetic solubility of 40.2 µg/mL (≈ 149 µM). Take `Cn1c(O)c(C=Nc2ccc(F)cc2)c(=O)[nH]c1=O`: the solubility (kinetic) came to 11.9 µg/mL (≈ 45.2 µM).

For `CN1CCN(C(=O)c2ccc(-c3ccc(Br)cc3)o2)CC1`, the solubility (kinetic) is above 52.4 µg/mL. Under `O=C(C[n+]1ccc(/C=N/O)cc1)N1CCCCC1.[Cl-]` stands above 42.6 µg/mL; under `COc1cc(NC(=O)Nc2cccc(Cl)c2)c(C(=O)O)cc1OC`, above 52.6 µg/mL. In the case of `C=CCN1C(=O)c2ccc(C(=O)Nc3ccccn3)cc2C1=O` it was 8 µg/mL (≈ 26 µM). In the case of `CCOc1ccccc1C(=O)NCCNC(=O)c1ccccc1OCC` it was 40.6 µg/mL (≈ 114 µM).

The term solubility (kinetic) denotes solubility judged after dilution from a stock solution rather than from solid.
